Measured values from ChEMBL document CHEMBL1121781, “Potential antitumor agents. 34. Quantitative relationships between DNA binding and molecular structure for 9-anilinoacridines substituted in the anilino ring” (J Med Chem, 1981).
The source made the active and inactive calls. The rule behind the calls is not given here.

What was measured:
Calf thymus DNA = conditions: Bos taurus
Description: Inhibitory concentration against ethidium binding to DNA

Nucleic Acid [1] = test system: Nucleic Acid
Description: Association constant for binding to poly [d(A-T)]

Nucleic Acid [2] = test system: Nucleic Acid; remark: listed apart in the source
Description: Association constant for binding to poly [d(G-C)]

Description for Mus musculus: Maximum percent increase in life span of mice
Description for physchem: Ionisation constant (pKa)

Compound | C50 (Calf thymus DNA) | pKa (physchem) | Log K (Nucleic Acid [1]) | Log K (Nucleic Acid [2]) | ILS (Mus musculus)
CC(=O)Nc1ccc(Nc2c3ccccc3nc3ccccc23)cc1 | 4.7 µM | 7.51 |  |  | 
NS(=O)(=O)c1ccccc1Nc1c2ccccc2nc2ccccc12 | 18 µM |  | 5.67 | 5.77 | inactive
CC(=O)c1ccc(Nc2c3ccccc3nc3ccccc23)cc1 | 14 µM | 6.12 | 5.87 | 5.89 | inactive
CC(=O)Nc1cccc(Nc2c3ccccc3nc3ccccc23)c1 | 13 µM | 7.16 | 5.9 | 5.96 | 
CN(c1ccc(Nc2c3ccccc3nc3ccccc23)cc1)S(C)(=O)=O | 9.9 µM |  | 5.89 | 6 | 
Brc1ccccc1Nc1c2ccccc2nc2ccccc12 | 58 µM | 6.41 | 5.35 | 5.32 | inactive
COc1cccc(Nc2c3ccccc3nc3ccccc23)c1 | 14 µM | 7.21 | 5.86 | 5.91 | inactive
NC(=O)c1ccc(Nc2c3ccccc3nc3ccccc23)cc1 | 18 µM |  | 5.83 | 5.77 | inactive
CN(C)c1ccc(Nc2c3ccccc3nc3ccccc23)cc1 | 2 µM | 8.46 | 6.51 | 6.29 | 
O=[N+]([O-])c1ccc(Nc2c3ccccc3nc3ccccc23)cc1 | 19 µM |  | 5.48 | 5.69 | inactive
Ic1ccccc1Nc1c2ccccc2nc2ccccc12 | 126 µM | 6.47 | 5.33 | 5.27 | inactive
Clc1cccc(Nc2c3ccccc3nc3ccccc23)c1 | 11 µM | 6.76 | 6.02 | 6.02 | inactive
COC(=O)Nc1ccc(Nc2c3ccccc3nc3ccccc23)cc1 | 5.3 µM | 7.64 |  | 6.23 | 
NC(=O)c1ccccc1Nc1c2ccccc2nc2ccccc12 | 38 µM |  | 5.37 | 5.43 | inactive
COc1ccccc1Nc1c2ccccc2nc2ccccc12 | 34 µM | 7.74 | 5.5 | 5.47 | 
O=C(Nc1ccc(Nc2c3ccccc3nc3ccccc23)cc1)c1ccccc1 | 5.4 µM | 7.39 | 6.2 | 6.14 | 
CS(=O)(=O)Nc1ccccc1Nc1c2ccccc2nc2ccccc12 | 7.3 µM | 6.86 | 5.49 | 6.1 | inactive
CC(=O)Nc1ccccc1Nc1c2ccccc2nc2ccccc12 | 42 µM | 7.24 | 5.84 | 5.46 | inactive
Nc1ccc(S(=O)(=O)Nc2ccc(Nc3c4ccccc4nc4ccccc34)cc2)cc1 | 4.4 µM | 7.15 | 6.3 | 6.26 | 
Cc1cccc(Nc2c3ccccc3nc3ccccc23)c1 | 15 µM | 7.52 | 6.09 | 5.9 | inactive
NS(=O)(=O)c1ccc(Nc2c3ccccc3nc3ccccc23)cc1 | 14 µM |  | 5.96 | 5.92 | inactive

Compound | C50 (Calf thymus DNA) | pKa (physchem) | Log K (Nucleic Acid [1]) | Log K (Nucleic Acid [2]) | ILS (Mus musculus)
Fc1ccccc1Nc1c2ccccc2nc2ccccc12 | 27 µM | 6.84 | 5.59 | 5.65 | inactive
Clc1ccccc1Nc1c2ccccc2nc2ccccc12 | 41 µM | 6.55 | 5.39 | 5.47 | inactive
c1cncc(Nc2c3ccccc3nc3ccccc23)c1 | 13 µM | 6.46 | 5.75 | 5.96 | inactive
Oc1ccc(Nc2c3ccccc3nc3ccccc23)cc1 | 5.1 µM | 7.91 | 6.28 | 6.21 | 
Brc1ccc(Nc2c3ccccc3nc3ccccc23)cc1 | 11 µM | 7 | 6.02 | 5.98 | inactive
Nc1ccccc1Nc1c2ccccc2nc2ccccc12 | 13 µM | 7.87 | 5.76 | 5.76 | inactive
CC(C)c1ccccc1Nc1c2ccccc2nc2ccccc12 | 142 µM | 7.64 | 5.08 | 4.92 | inactive
CNS(=O)(=O)c1ccc(Nc2c3ccccc3nc3ccccc23)cc1 | 16 µM | 6.02 | 5.82 | 5.85 | inactive
O=[N+]([O-])c1cccc(Nc2c3ccccc3nc3ccccc23)c1 | 27 µM | 6.26 | 5.56 | 5.62 | inactive
CS(=O)(=O)NCc1ccccc1Nc1c2ccccc2nc2ccccc12 | 46 µM | 7.17 | 5.6 | 5.39 | inactive
CS(=O)(=O)c1ccc(Nc2c3ccccc3nc3ccccc23)cc1 | 14 µM | 5.81 | 5.86 | 5.88 | inactive
c1ccc(Nc2c3ccccc3nc3ccccc23)nc1 | 42 µM | 6.32 | 5.6 | 5.43 | inactive
COC(=O)c1ccccc1Nc1c2ccccc2nc2ccccc12 | 40 µM | 6.3 | 5.47 | 5.41 | inactive
CCCNc1ccc(Nc2c3ccccc3nc3ccccc23)cc1 | 2 µM | 8.25 | 6.35 | 6.28 | inactive
O=C(Nc1ccccc1)Nc1ccc(Nc2c3ccccc3nc3ccccc23)cc1 | 3.8 µM | 7.67 | 6.37 | 6.3 | 
CS(=O)(=O)Nc1ccc(Nc2c3ccccc3nc3ccccc23)cc1 | 8.9 µM |  |  |  | 
N#Cc1ccc(Nc2c3ccccc3nc3ccccc23)cc1 | 15 µM | 5.93 | 5.7 | 5.86 | inactive
c1ccc(Nc2c3ccccc3nc3ccccc23)cc1 | 16 µM | 7.46 | 5.86 | 5.85 | inactive
CS(=O)(=O)Nc1cccc(Nc2c3ccccc3nc3ccccc23)c1 | 15 µM |  |  | 5.86 | 
CCNc1ccc(Nc2c3ccccc3nc3ccccc23)cc1 | 1.7 µM | 8.3 | 6.44 | 6.36 | 
COC(=O)c1ccc(Nc2c3ccccc3nc3ccccc23)cc1 | 15 µM |  | 5.88 | 5.86 | 

Compound | C50 (Calf thymus DNA) | pKa (physchem) | Log K (Nucleic Acid [1]) | Log K (Nucleic Acid [2]) | ILS (Mus musculus)
Cc1ccc(Nc2c3ccccc3nc3ccccc23)cc1 | 10 µM | 7.72 | 5.99 | 5.99 | 
CCCCNc1ccc(Nc2c3ccccc3nc3ccccc23)cc1 | 1.6 µM | 8.24 | 6.45 | 6.39 | inactive
Clc1ccc(Nc2c3ccccc3nc3ccccc23)cc1 | 14 µM | 7.06 | 5.99 | 5.91 | inactive
CCOc1ccccc1Nc1c2ccccc2nc2ccccc12 | 85 µM | 7.85 | 5.2 | 5.08 | inactive
Fc1ccc(Nc2c3ccccc3nc3ccccc23)cc1 | 16 µM | 7.5 | 5.9 | 5.85 | inactive
CNc1ccc(Nc2c3ccccc3nc3ccccc23)cc1 | 1.2 µM | 8.42 | 6.55 | 6.54 | 
Nc1ccc(Nc2c3ccccc3nc3ccccc23)cc1 | 2.3 µM | 8.36 | 6.31 | 6.23 | 
CCCCCCNc1ccc(Nc2c3ccccc3nc3ccccc23)cc1 | 1.6 µM | 8.24 | 6.43 | 6.38 | inactive
COC(=O)Nc1ccccc1Nc1c2ccccc2nc2ccccc12 | 17 µM | 7.24 | 5.56 | 5.78 | inactive
CN(c1ccccc1Nc1c2ccccc2nc2ccccc12)S(C)(=O)=O | 37 µM | 6.97 | 5.08 | 5.46 | inactive
O=[N+]([O-])c1ccccc1Nc1c2ccccc2nc2ccccc12 | 36 µM |  | 5.36 | 5.49 | inactive
Nc1cccc(Nc2c3ccccc3nc3ccccc23)c1 | 8.6 µM | 7.58 | 6.11 | 6.01 | 
Ic1ccc(Nc2c3ccccc3nc3ccccc23)cc1 | 8.2 µM | 6.9 | 6.19 | 6.13 | inactive
O=S(=O)(Nc1ccc(Nc2c3ccccc3nc3ccccc23)cc1)c1ccccc1 | 5.7 µM | 7.09 | 6.2 | 6.23 | 
CCc1ccccc1Nc1c2ccccc2nc2ccccc12 | 83 µM | 7.68 | 5.18 | 5.15 | inactive
Oc1ccccc1Nc1c2ccccc2nc2ccccc12 | 39 µM | 7.8 | 5.36 | 5.42 | inactive
CC(C)(C)c1ccccc1Nc1c2ccccc2nc2ccccc12 | 100 µM | 7.62 | 5.23 | 5.09 | inactive
CNc1cccc(Nc2c3ccccc3nc3ccccc23)c1 | 7 µM | 7.61 | 6.11 | 6.01 | inactive
CNC(=O)Nc1ccc(Nc2c3ccccc3nc3ccccc23)cc1 | 4.1 µM | 7.77 |  |  | 
